Source: ChEMBL document CHEMBL1201862, “PubChem BioAssay data set” (2004)
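Values below derive from 48-hour exposures of cells grown in 96-well plates, with endpoints linearly interpolated between the two concentrations bracketing the appropriate inhibition level. At the GI50, growth is halved.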 The source made the active and inactive calls. Cut-off read from the data, not from the text of the source: active = GI50 up to about 1.1 µM and inactive = higher.

Columns and labels:
Assay in all cases: NCI tumour cell line growth inhibition, 48 h
[1] = test system: 786-0
[2] = test system: A498
[3] = test system: A549
[4] = test system: ACHN
[5] = test system: CAKI-1
[6] = test system: CCRF-CEM
[7] = test system: COLO 205
[8] = test system: DLD-1
[9] = test system: DMS-273
[10] = test system: EKVX
[11] = test system: HCC 2998
[12] = test system: HCT-15
[13] = test system: HL-60
[14] = test system: HOP-62
[15] = test system: HT-29
[16] = test system: IGROV-1
[17] = test system: K562
[18] = test system: KM-20L2
[19] = test system: KM12
[20] = test system: LOX IMVI
[21] = test system: LXFL 529
[22] = test system: M14
[23] = test system: M19-MEL
[24] = test system: MOLT-4
[25] = test system: Malme-3M
[26] = test system: NCI-H226
[27] = test system: NCI-H23
[28] = test system: NCI-H460
[29] = test system: NCI-H522
[30] = test system: OVCAR-4
[31] = test system: OVCAR-8
[32] = test system: RPMI-8226
[33] = test system: RXF 393
[34] = test system: SF-268
[35] = test system: SF-295
[36] = test system: SF-539
[37] = test system: SK-MEL-2
[38] = test system: SK-MEL-5
[39] = test system: SN12C
[40] = test system: SNB-19
[41] = test system: SNB-75
[42] = test system: SR
[43] = test system: SW-620
[44] = test system: TK-10
[45] = test system: U-251
[46] = test system: UACC-257
[47] = test system: UACC-62
[48] = test system: UO-31
[49] = test system: XF498
[50] = test system: DMS-114
[51] = test system: HCT-116
[52] = test system: HOP-92
[53] = test system: OVCAR-5
[54] = test system: SK-MEL-28
[55] = test system: SNB-78
[56] = test system: SK-OV-3

## COc1ccc(S(=O)(=O)NNS(C)(=O)=O)cc1OC
[1]
  GI50: > 100 µM (inactive)
[2]
  GI50: > 100 µM (inactive)
[3]
  GI50: > 100 µM (inactive)
[4]
  GI50: > 100 µM (inactive)
[5]
  GI50: > 100 µM (inactive)
[6]
  GI50: > 100 µM (inactive)
[7]
  GI50: > 100 µM (inactive)
[8]
  GI50: > 100 µM (inactive)
[9]
  GI50: > 100 µM (inactive)
[10]
  GI50: > 100 µM (inactive)
[11]
  GI50: > 100 µM (inactive)
[12]
  GI50: > 100 µM
[13]
  GI50: > 100 µM (inactive)
[14]
  GI50: > 100 µM (inactive)
[15]
  GI50: > 100 µM (inactive)
[16]
  GI50: > 100 µM (inactive)
[17]
  GI50: > 100 µM (inactive)
[18]
  GI50: > 100 µM (inactive)
[19]
  GI50: > 100 µM (inactive)
[20]
  GI50: > 100 µM (inactive)
[21]
  GI50: > 100 µM (inactive)
[22]
  GI50: > 100 µM (inactive)
[23]
  GI50: > 100 µM (inactive)
[24]
  GI50: > 100 µM (inactive)
[25]
  GI50: > 100 µM (inactive)
[26]
  GI50: > 100 µM (inactive)
[27]
  GI50: > 100 µM (inactive)
[28]
  GI50: > 100 µM (inactive)
[29]
  GI50: > 100 µM (inactive)
[30]
  GI50: > 100 µM (inactive)
[31]
  GI50: > 100 µM (inactive)
[32]
  GI50: > 100 µM (inactive)
[33]
  GI50: 31.3 µM (inactive)
[34]
  GI50: 79.4 µM (inactive)
[35]
  GI50: > 100 µM (inactive)
[36]
  GI50: > 100 µM (inactive)
[37]
  GI50: > 100 µM (inactive)
[38]
  GI50: > 100 µM (inactive)
[39]
  GI50: > 100 µM (inactive)
[40]
  GI50: > 100 µM (inactive)
[41]
  GI50: > 100 µM (inactive)
[42]
  GI50: > 100 µM (inactive)
[43]
  GI50: > 100 µM (inactive)
[44]
  GI50: > 100 µM (inactive)
[45]
  GI50: > 100 µM (inactive)
[46]
  GI50: > 100 µM (inactive)
[47]
  GI50: > 100 µM (inactive)
[48]
  GI50: > 100 µM (inactive)
[49]
  GI50: > 100 µM (inactive)

## COC(=O)c1cc(Cl)ccc1NC(=O)C1CCCCC1
[1]
  GI50: > 100 µM (inactive)
[3]
  GI50: > 100 µM (inactive)
[4]
  GI50: > 100 µM (inactive)
[7]
  GI50: > 100 µM (inactive)
[50]
  GI50: > 100 µM (inactive)
[9]
  GI50: > 100 µM (inactive)
[10]
  GI50: > 100 µM (inactive)
[11]
  GI50: > 100 µM (inactive)
[51]
  GI50: > 100 µM (inactive)
[12]
  GI50: > 100 µM
[52]
  GI50: 22.8 µM (inactive)
[15]
  GI50: > 100 µM (inactive)
[17]
  GI50: > 100 µM (inactive)
[18]
  GI50: > 100 µM (inactive)
[19]
  GI50: > 100 µM (inactive)
[21]
  GI50: > 100 µM (inactive)
[24]
  GI50: 23.2 µM (inactive)
[25]
  GI50: > 100 µM (inactive)
[26]
  GI50: > 100 µM (inactive)
[27]
  GI50: > 100 µM (inactive)
[53]
  GI50: > 100 µM (inactive)
[31]
  GI50: > 100 µM (inactive)
[32]
  GI50: > 100 µM (inactive)
[33]
  GI50: 33.1 µM (inactive)
[34]
  GI50: 48.1 µM (inactive)
[35]
  GI50: > 100 µM (inactive)
[36]
  GI50: > 100 µM (inactive)
[54]
  GI50: > 100 µM (inactive)
[37]
  GI50: > 100 µM (inactive)
[39]
  GI50: 74.6 µM (inactive)
[40]
  GI50: > 100 µM (inactive)
[55]
  GI50: > 100 µM (inactive)
[42]
  GI50: > 100 µM (inactive)
[43]
  GI50: > 100 µM (inactive)
[44]
  GI50: 92.7 µM (inactive)
[45]
  GI50: > 100 µM (inactive)
[46]
  GI50: > 100 µM (inactive)
[48]
  GI50: 17.6 µM (inactive)

## Cn1c(=O)n(C2(C)C[Se]C2)c2ccccc21
[1]
  GI50: > 100 µM (inactive)
[2]
  GI50: > 100 µM (inactive)
[3]
  GI50: > 100 µM (inactive)
[4]
  GI50: > 100 µM (inactive)
[5]
  GI50: > 100 µM (inactive)
[6]
  GI50: > 100 µM (inactive)
[7]
  GI50: > 100 µM (inactive)
[8]
  GI50: > 100 µM (inactive)
[9]
  GI50: > 100 µM (inactive)
[10]
  GI50: > 100 µM (inactive)
[11]
  GI50: 65.3 µM (inactive)
[51]
  GI50: > 100 µM (inactive)
[12]
  GI50: > 100 µM
[13]
  GI50: > 100 µM (inactive)
[14]
  GI50: > 100 µM (inactive)
[52]
  GI50: > 100 µM (inactive)
[15]
  GI50: > 100 µM (inactive)
[16]
  GI50: > 100 µM (inactive)
[17]
  GI50: > 100 µM (inactive)
[18]
  GI50: > 100 µM (inactive)
[19]
  GI50: > 100 µM (inactive)
[20]
  GI50: > 100 µM (inactive)
[21]
  GI50: > 100 µM (inactive)
[22]
  GI50: > 100 µM (inactive)
[23]
  GI50: > 100 µM (inactive)
[24]
  GI50: > 100 µM (inactive)
[26]
  GI50: > 100 µM (inactive)
[27]
  GI50: > 100 µM (inactive)
[28]
  GI50: > 100 µM (inactive)
[29]
  GI50: > 100 µM (inactive)
[30]
  GI50: > 100 µM (inactive)
[53]
  GI50: > 100 µM (inactive)
[31]
  GI50: > 100 µM (inactive)
[32]
  GI50: > 100 µM (inactive)
[33]
  GI50: > 100 µM (inactive)
[34]
  GI50: > 100 µM (inactive)
[35]
  GI50: > 100 µM (inactive)
[36]
  GI50: > 100 µM (inactive)
[54]
  GI50: > 100 µM (inactive)
[37]
  GI50: > 100 µM (inactive)
[38]
  GI50: > 100 µM (inactive)
[56]
  GI50: > 100 µM (inactive)
[39]
  GI50: > 100 µM (inactive)
[40]
  GI50: > 100 µM (inactive)
[41]
  GI50: > 100 µM (inactive)
[55]
  GI50: > 100 µM (inactive)
[42]
  GI50: > 100 µM (inactive)
[43]
  GI50: > 100 µM (inactive)
[44]
  GI50: > 100 µM (inactive)
[45]
  GI50: > 100 µM (inactive)
[46]
  GI50: > 100 µM (inactive)
[47]
  GI50: > 100 µM (inactive)
[48]
  GI50: > 100 µM (inactive)

## CC1(C(=O)Nc2ccc3ccccc3c2)CC2(C)CC(C)(C1)C(O)NC2=O (stereo not drawn)
[2]
  GI50: > 100 µM (inactive)
[3]
  GI50: > 100 µM (inactive)
[4]
  GI50: > 100 µM (inactive)
[6]
  GI50: > 100 µM (inactive)
[9]
  GI50: > 100 µM (inactive)
[10]
  GI50: > 100 µM (inactive)
[13]
  GI50: > 100 µM (inactive)
[14]
  GI50: > 100 µM (inactive)
[52]
  GI50: > 100 µM (inactive)
[15]
  GI50: > 100 µM (inactive)
[16]
  GI50: > 100 µM (inactive)
[19]
  GI50: > 100 µM (inactive)
[22]
  GI50: > 100 µM (inactive)
[23]
  GI50: > 100 µM (inactive)
[24]
  GI50: > 100 µM (inactive)
[27]
  GI50: > 100 µM (inactive)
[28]
  GI50: > 100 µM (inactive)
[29]
  GI50: > 100 µM (inactive)
[53]
  GI50: > 100 µM (inactive)
[31]
  GI50: 86.9 µM (inactive)
[33]
  GI50: > 100 µM (inactive)
[34]
  GI50: > 100 µM (inactive)
[35]
  GI50: > 100 µM (inactive)
[54]
  GI50: > 100 µM (inactive)
[56]
  GI50: > 100 µM (inactive)
[40]
  GI50: > 100 µM (inactive)
[55]
  GI50: > 100 µM (inactive)
[42]
  GI50: > 100 µM (inactive)
[44]
  GI50: > 100 µM (inactive)
[45]
  GI50: > 100 µM (inactive)
[46]
  GI50: 81.5 µM (inactive)
[47]
  GI50: > 100 µM (inactive)
[48]
  GI50: > 100 µM (inactive)
